For orientation: IC50 means the midpoint of a concentration-inhibition curve. A low value points to inhibition by little substance.

The experiment has as its target T1, stearoyl-CoA desaturase (SCD) (Rattus norvegicus, UniProt P07308).
T1 construct: from tissue; host or cells: liver microsomes of male Sprague Dawley rats, with SCD induced by a carbohydrate-rich diet
T1 sequence (P07308 1-358): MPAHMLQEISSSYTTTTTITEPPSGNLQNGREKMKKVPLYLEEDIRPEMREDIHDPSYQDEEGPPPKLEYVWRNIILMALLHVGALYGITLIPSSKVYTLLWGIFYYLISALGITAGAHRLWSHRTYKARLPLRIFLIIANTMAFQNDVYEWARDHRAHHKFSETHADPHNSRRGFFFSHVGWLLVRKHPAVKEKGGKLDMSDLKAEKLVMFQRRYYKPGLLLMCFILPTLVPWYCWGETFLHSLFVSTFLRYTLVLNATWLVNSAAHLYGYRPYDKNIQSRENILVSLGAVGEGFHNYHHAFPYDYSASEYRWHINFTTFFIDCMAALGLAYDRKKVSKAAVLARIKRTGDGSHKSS
The experiment can be described thus: SCD assay, rat liver microsomes with [3H]stearoyl CoA (adapted from Talamo and Bloch). The following applies: second table, same SCD assay. It counts as biochemical. The text has this: The identification of compounds of the invention as SCD inhibitors was readily accomplished using the SCD enzyme and microsomal assay procedure described in Talamo and Bloch (1969) Analytical Biochemistry 29:300-304.
The rat liver microsomes were collected according to the procedure described in Ozols (1990) Methods Enzm, 182:225.
Male Spraque Dawley Rats were placed on regimented fasting protocol for one week to stimulate SCD enzymatic activity. 48-hour periods were alternated between feeding and fasting to induce and down-regulate SCD activity with SCD activity being induced via carbohydrate rich diet prior to liver perfusion and collection.
The rats were anesthetized with Isoflurane inhalation anesthetic, the liver perfused with cold phosphate buffered saline (PBS), weighed, and chilled in cold homogenization buffer (250 mM sucrose, 10 mM Tris, 1 mM EDTA, pH 7.6.
The livers were finely minced and placed in homogenization tube. 40 mL of homogenization buffer was added to the homogenization tube and the liver homogenized and centrifuged in a pre-chilled SLA-600 TC at 800G rotor for 10 min at 4° C.
Following centrifugation, the supernatant was collected and the pellet removed and discarded. This supernatant was then centrifuged at 10,000G for 35 minutes. Following centrifugation, the supernatant was collected and the pellet discarded. The supernatant was further centrifuged in a pre-chilled 45-Ti rotor at 130,000 G (41,000 RPM) for 90 minutes at 4° C.
The supernatant was then aspirated off and the collected microsomal pellet washed in 25 mL of Glycerol PBS (1×PBS 7.4, 20% Glycerol) and resuspended in 4-5 volumes of Glycerol PBS.
The protein concentration of the microsomal preparation was determined by BCA assay (Pierce) and the microsomes were aliquoted and stored at −80° C.
Biobeads were ground to a smaller size in a mortar and pestle and filtered through 300 μM mesh and then resuspended in 3.6% TCA.
SCD was determined in the desaturase assay buffer. This assay buffer contained 0.1 M Tris buffer, pH 7.2, 2 mM NADH, 4.8 mM ATP, 0.5 mM CoA, 4.8 mM MgCl2, and 0.1% BSA.
1 μl of each compound of Formula I was added to an assay plate by a low volume (0.5-10 μL) multichannel pipette. A DMSO control was also prepared. The microsomes were quickly thawed and added to assay buffer so that a concentration of 1-0.1 mg/ml was achieved (0.5-0.05 mg/ml assay final). 50 μl of the microsome suspension in assay buffer was then added into each well in the compound assay plate, the plate was covered, and the microsomes preincubated with the compounds for 30-60 minutes on the orbital shaker, 50-75 rpm, at room temperature.
After preincubation, the reaction was initiated by the addition of 50 μl of substrate solution (20 μM Stearoyl CoA, [3H]Stearoyl CoA, 74nCi) to the preincubated microsomes/compound suspensions in MilliQ (Millipore) H2O. The reaction mixtures were then incubated for 45 minutes on the orbital shaker at 50-75 rpm at room temperature.
The reaction was terminated by the addition of 10 μl of 21% trichloroacetic acid (TCA) to the reaction mixture followed incubation on the orbital shaker for 30 minutes at 50-75 rpm at room temperature followed by centrifugation for 5 minutes at 3700 rpm.
50 μl of a 6% Bio-Bead suspension in H2O was added to the reaction mixture and the assay plate was sealed. The Bio-Bead mixture was incubated on the orbital shaker for 1 to 24 hours, 100-150 rpm at room temperature, and then the mixture was centrifuged at 2000g for 5 minutes to pellet the Bio-Beads.
25 μl of the supernatant was harvested from each well and transferred to a detection plate. 100 μl of OptiPhase SuperMix scinitillation cocktail (containing sufficient NaOH to neutralize the TCA) was added and the solutions mixed by vigorous shaking (300-400 rpm) for 5 minutes at room temperature.
(Liver microsomes are vesicles of endoplasmic reticulum, rich in cytochrome P450 enzymes.)
In the case of “2,3-dihydroxy-N-(2-(3-methyl-2-oxo-7-(3-(trifluoromethyl)benzylamino)quinoxalin-1(2H)-yl)ethyl)propanamide [compound 52]”, half-maximal inhibition (IC50) was put at 360 nM. “3-(2-(4-(2-methoxyethoxy)phenyl)-3-oxo-6-(3-(trifluoromethyl)benzylamino)pyrido[2,3-b]pyrazin-4(3H)-yl)propanamide [compound 30]” returned an IC50 of 190 nM. Under “3-(2-(4-ethylphenyl)-3-oxo-6-(3-(trifluoromethyl)benzylamino)pyrido[2,3-b]pyrazin-4(3H)-yl)propanamide [compound 29]” stands 150 nM.

“3-(2-(4-methoxyphenyl)-3-oxo-6-(3-(trifluoromethyl)benzylamino)pyrido[2,3-b]pyrazin-4(3H)-yl)propanamide [compound 6]” came in with an IC50 of 35 nM. “3-(3-oxo-2-(4-propylphenyl)-6-(3-(trifluoromethyl)benzylamino)pyrido[2,3-b]pyrazin-4(3H)-yl)propanamide [compound 31]” came in with an IC50 of 380 nM. Under “3-(3-oxo-6-(3-(trifluoromethyl)benzylamino)-2-(4-(trifluoromethyl)phenyl)pyrido[2,3-b]pyrazin-4(3H)-yl)propanamide [compound 38]” stands 130 nM; under “3-(6-(3,4-dichlorobenzylamino)-2-(4-methoxyphenyl)-3-oxopyrido[2,3-b]pyrazin-4(3H)-yl)-N-methylpropanamide [compound 12]”, 95 nM. “4-(2-(4-methoxyphenyl)-3-oxo-6-(3-(trifluoromethyl)benzylamino)pyrido[2,3-b]pyrazin-4(3H)-yl)butanamide [compound 35]” came in with an IC50 of 150 nM. `COc1ccc(-c2nc3ccc(NCc4ccc(Cl)c(Cl)c4)nc3n([C@H]3CCNC3)c2=O)cc1` [compound 2, (S)-6-(3,4-dichlorobenzylamino)-2-(4-methoxyphenyl)-4-(pyrrolidin-3-yl)pyrido[2,3-b]pyrazin-3(4H)-one] came in with an IC50 of 1800 nM.

With `COc1ccc(-c2nc3ccc(NCc4cccc(C(F)(F)F)n4)nc3n(CCNC(C)=O)c2=O)cc1` [compound 3, N-(2-(2-(4-methoxyphenyl)-3-oxo-6-((6-(trifluoromethyl)pyridin-2-yl)methylamino)pyrido[2,3-b]pyrazin-4(3H)-yl)ethyl)acetamide], half-maximal inhibition (IC50) was put at 10000 nM. Then `COc1ccc(-c2nc3ccc(NCc4cc(C(F)(F)F)ccn4)nc3n(CCNC(C)=O)c2=O)cc1` [compound 4, N-(2-(2-(4-methoxyphenyl)-3-oxo-6-((4-(trifluoromethyl)pyridin-2-yl)methylamino)pyrido[2,3-b]pyrazin-4(3H)-yl)ethyl)acetamide], with 180 nM; and `COc1ccc(-c2nc3ccc(NCc4ccc(Cl)c(Cl)c4)nc3n(C(C)CC(N)=O)c2=O)cc1` (centres unmarked) [compound 5, 3-(6-(3,4-dichlorobenzylamino)-2-(4-methoxyphenyl)-3-oxopyrido[2,3-b]pyrazin-4(3H)-yl)butanamide], with 53 nM. Then `CC(=O)NCCn1c(=O)cnc2ccc(NCc3cccc(C(F)(F)F)c3)nc21` [compound 7, N-(2-(3-oxo-6-(3-(trifluoromethyl)benzylamino)pyrido[2,3-b]pyrazin-4(3H)-yl)ethyl)acetamide], with 220 nM. Under `COc1ccc(-c2nc3ccc(NCc4ccccc4)nc3n(CCNC(C)=O)c2=O)cc1` [compound 8, N-(2-(6-(benzylamino)-2-(4-methoxyphenyl)-3-oxopyrido[2,3-b]pyrazin-4(3H)-yl)ethyl)acetamide] stands 840 nM; under `COc1ccc(-c2nc3ccc(NCc4cccnc4)nc3n(CCNC(C)=O)c2=O)cc1` [compound 9, N-(2-(2-(4-methoxyphenyl)-3-oxo-6-(pyridin-3-ylmethylamino)pyrido[2,3-b]pyrazin-4(3H)-yl)ethyl)acetamide], 30000 nM; under `COc1ccc(-c2nc3ccc(NCc4cccc(F)c4)nc3n(CCNC(C)=O)c2=O)cc1` [compound 10, N-(2-(6-(3-fluorobenzylamino)-2-(4-methoxyphenyl)-3-oxopyrido[2,3-b]pyrazin-4(3H)-yl)ethyl)acetamide], 18000 nM. The molecule `COc1ccc(-c2nc3ccc(NCc4ccc(Cl)c(Cl)c4)nc3n(CCCC(N)=O)c2=O)cc1` [compound 11, 4-(6-(3,4-dichlorobenzylamino)-2-(4-methoxyphenyl)-3-oxopyrido[2,3-b]pyrazin-4(3H)-yl)butanamide] displayed an IC50 of 150 nM. Under `CC(=O)NCCn1c(=O)cnc2ccc(NCc3ccc(Cl)c(Cl)c3)nc21` [compound 14, N-(2-(6-(3,4-dichlorobenzylamino)-3-oxopyrido[2,3-b]pyrazin-4(3H)-yl)ethyl)acetamide] stands 510 nM; under `COC(=O)c1cccc(CNc2ccc3nc(-c4ccc(OC)cc4)c(=O)n(CCNC(C)=O)c3n2)c1` [compound 15, methyl 3-((4-(2-acetamidoethyl)-2-(4-methoxyphenyl)-3-oxo-3,4-dihydropyrido[2,3-b]pyrazin-6-ylamino)methyl)benzoate], 19000 nM; under `CONC(=O)CCn1c(=O)c(-c2ccc(OC)cc2)nc2ccc(NCc3cccc(C(F)(F)F)c3)nc21` [compound 16, N-methoxy-3-(2-(4-methoxyphenyl)-3-oxo-6-(3-(trifluoromethyl)benzylamino)pyrido[2,3-b]pyrazin-4(3H)-yl)propanamide], 930 nM.

In the case of `CCOC(=O)c1nc2ccc(NCc3cccc(C(F)(F)F)c3)nc2n(CCNC(C)=O)c1=O` [compound 17, ethyl 4-(2-acetamidoethyl)-3-oxo-6-(3-(trifluoromethyl)benzylamino)-3,4-dihydropyrido[2,3-b]pyrazine-2-carboxylate], the half-inhibitory concentration (IC50) was 6700 nM. `COc1ccc(-c2nc3ccc(NCc4cccc(C)c4)nc3n(CCNC(C)=O)c2=O)cc1` [compound 18, N-(2-(2-(4-methoxyphenyl)-6-(3-methylbenzylamino)-3-oxopyrido[2,3-b]pyrazin-4(3H)-yl)ethyl)acetamide] had an IC50 of 380 nM. Under `CNC(=O)CCn1c(=O)c(-c2ccc(OC)cc2)nc2ccc(NCc3cccc(C(F)(F)F)c3)nc21` [compound 19, 3-(2-(4-methoxyphenyl)-3-oxo-6-(3-(trifluoromethyl)benzylamino)pyrido[2,3-b]pyrazin-4(3H)-yl)-N-methylpropanamide] stands 360 nM; under `COc1ccc(-c2nc3ccc(NCc4cccc(OC(F)(F)F)c4)nc3n(CCNC(C)=O)c2=O)cc1` [compound 20], 260 nM; under `COc1ccc(-c2nc3ccc(NCc4cc(C(F)(F)F)ccc4F)nc3n(CCNC(C)=O)c2=O)cc1` [compound 21, N-(2-(6-(2-fluoro-5-(trifluoromethyl)benzylamino)-2-(4-methoxyphenyl)-3-oxopyrido[2,3-b]pyrazin-4(3H)-yl)ethyl)acetamide], 1500 nM. Then `COCCOc1ccc(-c2nc3ccc(NCc4cccc(C(F)(F)F)c4)nc3n(CCNC(C)=O)c2=O)cc1` [compound 23, N-(2-(2-(4-(2-methoxyethoxy)phenyl)-3-oxo-6-(3-(trifluoromethyl)benzylamino)pyrido[2,3-b]pyrazin-4(3H)-yl)ethyl)acetamide], with 230 nM.

The values above are taken from US7893066B2, “Pyridol[2,3-B]pyrazinones for use as stearoyl CoA desaturase inhibitors” (Gilead Palo Alto, Inc., priority 2006, dated 2011).
